For data set [1], the target named is T1, D3 dopamine receptor (Homo sapiens (Human), UniProt P35462). Description: D3 receptor tolerance and SRT: GIRK response to repeated agonist application in AtT-20 cells. The class given is cell-based. The conditions noted are these: AtT-20 cells expressing human D3, 100-300 nM agonist, repeated ~60 s applications. On the procedure: To determine whether a compound abolishes the D3 receptor tolerance and SRT, the D3 receptor-activated GIRK response to two consecutive treatments of the lead compound is measured. […] Drug solutions were delivered to cells via a multi-barreled micropipette array. The current responses were normalized to the cell capacitance, to account for variation in cell size.
To identify agonists that might modulate D3 receptor tolerance and SRT properties, ten distinct agonists were screened for their ability to induce tolerance and SRT, using the D3 receptor-GIRK channel signaling pathway as an assay.
Target sequence in this assay (P35462 other isoform, or with tags, fused parts or gaps): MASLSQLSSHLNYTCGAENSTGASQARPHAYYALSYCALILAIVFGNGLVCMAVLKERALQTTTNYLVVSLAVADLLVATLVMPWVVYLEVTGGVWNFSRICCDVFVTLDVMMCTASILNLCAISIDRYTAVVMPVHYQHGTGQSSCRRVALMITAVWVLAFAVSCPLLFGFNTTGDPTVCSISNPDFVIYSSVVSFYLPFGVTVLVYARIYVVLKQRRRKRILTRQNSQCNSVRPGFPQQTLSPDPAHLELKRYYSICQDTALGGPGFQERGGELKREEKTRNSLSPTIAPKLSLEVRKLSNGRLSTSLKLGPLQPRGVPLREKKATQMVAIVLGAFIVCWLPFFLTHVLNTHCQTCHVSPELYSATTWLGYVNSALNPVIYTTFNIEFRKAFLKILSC

In data set [2] the target is T1, D3 dopamine receptor. Briefly: GIRK channel activation, whole cell voltage clamp, AtT-20 cells stably expressing D3. It counts as cell-based. The conditions noted are these: D2/D3 antagonist eticlopride (100 nM). On the procedure:
The activation of the GIRK channels was measured electrophysiologically using whole cell voltage clamp recording (Kuzhikandathil et al., 2004, Mol. Cell. Neurosci. 26:144-155). […]. The adenylyl cyclase inhibition was determined using a commercially available ELISA assay (Westrich & Kuzhikandathil, 2007, Biochim. Biophys. Acta-Mol. Cell. Res. 1773:1747-1758).
. In the initial screen, the ability of 300 nM lead compound to activate G-protein coupled inward rectifier potassium (GIRK) channels (FIG. 1) is measured using whole cell voltage clamp recording. The protocol has been previously used for performing whole cell voltage clamp and measuring agonist-induced GIRK response. […]. The EC50 values for each receptor subtype is determined by fitting the data points using the Hill equation.
AtT-20 mouse pituitary cells were grown in Ham's F10 medium with 5% FBS, 10% heat-inactivated horse serum, 2 mM glutamine and 50 μg/ml gentamicin (Invitrogen, Carlsbad, Calif.). AtT-20 cells stabling expressing the human D2S, D2L, D3, and D4.2 and receptor were maintained in the above F10 culture media supplemented with 500 μg/ml G418 (Invitrogen). For electrophysiological characterization, cells were plated onto glass coverslips coated with 40 μg/ml poly L-lysine (Sigma-Aldrich). […]. Physiol. 115:697-706; Kuzhikandathil et al., 1998, Mol. Cell. Neurosci. 12:390-402; Kuzhikandathil & Bartoszyk, 2006, Neuropharm. 51:873-884; Westrich & Kuzhikandathil, 2007, Biochim. Biophys. Acta-MCR 1773:1747-1758; Kuzhikandathil et al., 2004, Mol. Cell. Neurosci. 26:144-155; Westrich et al., 2010, Biochem. Pharmacol. 79:897-907).
Agonist-activated currents were measured by the whole-cell patch clamp technique in voltage clamp and current clamp mode as described previously (Kuzhikandathil & Oxford, 2000, J. Gen. Physiol. 115:697-706; Kuzhikandathil et al., 1998, Mol. Cell. Neurosci. 12:390-402; Kuzhikandathil & Bartoszyk, 2006, Neuropharm. 51:873-884; Westrich & Kuzhikandathil, 2007, Biochim. Biophys. Acta-MCR 1773:1747-1758; Kuzhikandathil et al., 2004, Mol. Cell. Neurosci. 26:144-155; Westrich et al., 2010, Biochem. Pharmacol. 79:897-907). Drug solutions were delivered to cells via a multi-barreled micropipette array. The current responses were normalized to the cell capacitance, to account for variation in cell size.
To compare the functional effects of the new class of D3 receptor agonists, PBZI (Table 2) and ES609 (Table 3) were tested on AtT-20 cells stably expressing human D3, D2S, D2L or D4.2. […]. The EC50 values of PBZI and ES609 for inhibiting adenylyl cyclase and activating GIRK channels were in the range of 0.2 nM to 30 nM for D3 receptors. […]. […]
Target sequence in this assay (P35462 other isoform, or with tags, fused parts or gaps): as above

In the next data set the test system is Balb/c mice. Briefly: Locomotor activity (open field, TruScan) in Balb/c mice.
For data set [3], the target named is T1, D3 dopamine receptor. The conditions noted are these: cited from earlier work.
Target sequence in this assay (P35462 whole entry): as the sequence (P35462 other isoform, or with tags, fused parts or gaps) above, with S9G counted along it
The next data set deals with D2S (Homo sapiens (Human), UniProt P14416). The conditions noted are these: Scheideler et al., 1997; cited from earlier work.
Data set [4] relates to intrastriatal 6-OHDA lesioned rats. Description: Levodopa-induced dyskinesia (AIMs score) in intrastriatal 6-OHDA lesioned rats. The conditions noted are these: PD128907 0.1 mg/kg sc; PBZI 17 mg/kg sc; hydrochloride. It counts as in vivo, rat. How it is done:
In particular, rats in which unilateral intrastriatal lesion is induced by injection of 6-OHDA (7 μg) at three different sites in the ventrolateral striatum are used. The coordinates for the three injection sites are, in mm: injection site 1: AP: +1.0; ML: −3.0; DV: −5.0; injection site 2: AP: −0.1; ML: −3.7; DV: −5.0; injection site 3: AP: −1.2; ML: −4.5; DV: −5.0. Anterior-posterior (AP) and mediolateral (ML) coordinates are from bregma. The dorso-ventral (DV) coordinates are from dura. The toothbar location is 0.
Seven and half weeks after the lesion, chronic levodopa treatment (6 mg/kg, single dose per day given with 15 mg/kg benserazide) is initiated. Stepping test and AIMs scores are determined on day 1, 8, 10, 17 and 24 after the initiation of chronic levodopa treatment. […] AIMs are scored using a rating scale based on frequency and severity of the dyskinetic symptoms. It should be noted that the rank order of the various AIMs components in terms of frequency and severity in the rat model is: limb>orolingual=axial>>locomotor. This lesion model has been used to test the effect of PBZI on LID (Example 3).
FIG. 13A illustrates the effect of control, PD128907 (a tolerance inducing D2/D3 agonist) and PBZI (a non tolerance inducing D3/D3 agonist) on the total AIMs score (includes locomotor, axial, limb and orolingual) over time of a day 17 (chronic L-DOPA phase) lesioned animal.

The next data set addresses D4.2. The conditions noted are these: Scheideler et al., 1997; cited from earlier work.
Data set [5] addresses T2, D4.2 dopamine receptor (Homo sapiens (Human), UniProt P21917, DEL265-296). The conditions noted are these: Kuzhikandathil & Bartoszyk, 2006; cited from earlier work.
In a further data set the target is D2S dopamine receptor (Homo sapiens (Human), UniProt P14416). Briefly: Tolerance and SRT at D2S dopamine receptors. It counts as cell-based.
For data set [6], the target named is T2, D4.2 dopamine receptor. The conditions noted are these: Kuzhikandathil & Bartoszyk, 2006; cited from earlier work. The source holds these as a separate data set.
Data set [7] has as its target T3, D2L dopamine receptor (Homo sapiens (Human), UniProt P14416). The conditions noted are these: Kuzhikandathil & Bartoszyk, 2006; cited from earlier work.
The target in data set [8] is T3, D2L dopamine receptor. The conditions noted are these: Kuzhikandathil & Bartoszyk, 2006; cited from earlier work. This is another data set of the same source.
Data set [9] relates to intrastriatal 6-OHDA lesioned rats. Briefly: Forelimb stepping test in intrastriatal 6-OHDA lesioned rats. The conditions noted are these: levodopa 2, 4 and 6 mg/kg with benserazide.

Molecules are shown by their SMILES. “Also recorded” adds a separate entry of the source. Read-outs that look alike come from different tables or passages of the source.

T3 sequence (P14416 whole entry): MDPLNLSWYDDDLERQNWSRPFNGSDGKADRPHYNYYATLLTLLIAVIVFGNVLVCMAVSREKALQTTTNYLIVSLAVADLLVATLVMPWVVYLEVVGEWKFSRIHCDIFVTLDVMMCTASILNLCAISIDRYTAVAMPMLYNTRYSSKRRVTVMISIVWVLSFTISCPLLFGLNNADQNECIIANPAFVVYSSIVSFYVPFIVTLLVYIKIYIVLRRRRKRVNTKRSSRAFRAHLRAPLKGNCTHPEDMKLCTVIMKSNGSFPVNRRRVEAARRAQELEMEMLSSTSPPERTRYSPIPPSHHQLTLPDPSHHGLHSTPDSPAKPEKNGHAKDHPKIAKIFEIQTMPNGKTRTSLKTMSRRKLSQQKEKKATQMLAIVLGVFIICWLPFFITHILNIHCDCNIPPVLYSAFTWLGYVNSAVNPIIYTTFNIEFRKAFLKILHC
T2 sequence (P21917 other isoform, or with tags, fused parts or gaps del 265-296): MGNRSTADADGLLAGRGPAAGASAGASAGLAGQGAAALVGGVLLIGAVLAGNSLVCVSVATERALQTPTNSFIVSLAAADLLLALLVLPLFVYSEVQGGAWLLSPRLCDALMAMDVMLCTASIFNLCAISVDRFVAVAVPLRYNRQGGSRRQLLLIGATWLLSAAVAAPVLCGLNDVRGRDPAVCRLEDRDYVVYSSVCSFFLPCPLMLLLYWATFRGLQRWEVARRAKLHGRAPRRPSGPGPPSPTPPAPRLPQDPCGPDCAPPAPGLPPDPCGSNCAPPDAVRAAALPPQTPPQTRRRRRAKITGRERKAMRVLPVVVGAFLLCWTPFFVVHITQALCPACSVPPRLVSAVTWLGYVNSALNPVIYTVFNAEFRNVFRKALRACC
Chain of D2S dopamine receptor (P14416 other isoform, or with tags, fused parts or gaps): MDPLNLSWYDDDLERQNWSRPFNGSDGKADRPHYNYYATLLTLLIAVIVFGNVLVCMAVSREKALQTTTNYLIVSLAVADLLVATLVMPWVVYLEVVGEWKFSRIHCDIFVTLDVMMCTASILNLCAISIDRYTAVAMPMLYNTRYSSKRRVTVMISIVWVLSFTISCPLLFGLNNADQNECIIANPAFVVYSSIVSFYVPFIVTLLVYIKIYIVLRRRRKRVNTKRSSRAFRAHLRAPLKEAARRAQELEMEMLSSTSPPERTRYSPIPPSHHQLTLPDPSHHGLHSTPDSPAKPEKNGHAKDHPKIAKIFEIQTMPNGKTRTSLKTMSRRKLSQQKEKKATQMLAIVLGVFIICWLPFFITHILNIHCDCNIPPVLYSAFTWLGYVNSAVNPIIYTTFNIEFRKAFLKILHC
Chain of D2S (P14416 other isoform, or with tags, fused parts or gaps): as above
Description for Balb/c mice: Therefore, three different doses of the lead compound are administered and their effects on locomotor activity are determined. The dosage is determined based on the functional EC50 values and binding affinity of the lead compound from the cell-based assays described above. The compound is administered to Balb/c mice and locomotor activity is monitored using the TruScan Automated Behavioral Monitoring system (Coulborn Instruments).
A total of 12 young adult, male Balb/c mice were obtained form Charles River, Inc. (Wilmington, Mass.), and housed in groups of four in standard cages. The animals were maintained on a 12 hour light/12 hour dark cycle and permitted ad lib access to food and water. Experiments were conducted during the animal's light phase. […] For PD128907, separate groups of Balb/c mice received subcutaneous injections of saline (n=4) or 0.05 or 0.4 mg/kg PD128907 (n=4, for each). Locomotion (‘distance traveled’) scores of drug-injected animals were collapsed across 10-min intervals and for comparison purposes were normalized to saline injected animals (FIG. 12A). The experiment was conducted on three separate occasions.

On to `C#CC1=CCC(N(CCC)CCC)CC1` (stereo not drawn) [FAUC73, (4-ethynylcyclohex-3-enyl) dipropylamine], for which the “D3 receptor tolerance and SRT properties (agonist-induced GIRK response)” value on D3 dopamine receptor [1] is “abolished the tolerance property; also recorded: abolished both tolerance and SRT properties; also recorded: do not show D3 receptor tolerance and SRT”; on D3 dopamine receptor [1] (listed as FAUC 73) it was “completely abolished the receptors' tolerance and SRT properties”. In addition, the “specificity of agonist effect (eticlopride pretreatment / parental cells)” value at D3 dopamine receptor [2] is “specific for D3 receptors”.

In general, Ki refers to the dissociation constant of the complex between target and ligand, obtained from inhibition or displacement. As for `CCCN1CCO[C@@H]2c3cc(O)ccc3OC[C@H]21.Cl` [PD128907, (4aR,10bR)-3,4-a,4,10b-tetrahydro-4-propyl-2H,5H-[1]benzopyrano-[4,3-b]-1,4-oxazin-9-ol hydrochloride], the “D3 receptor tolerance and SRT properties (agonist-induced GIRK response)” value was “elicited tolerance and SRT; also recorded: induced enhanced tolerance; also recorded: induces severe tolerance and SRT” on D3 dopamine receptor [1] (hydrochloride); “tolerance is elicited” on D3 dopamine receptor [1] (listed as PD 128907, hydrochloride). Moreover, the “duration of hypoactivity post-injection” value in the data set on Balb/c mice (PBZI 10 mg/kg sc, PD128907 0.4 mg/kg sc) stood at 40 min; in the data set with Balb/c mice (PD128907 0.05 mg/kg sc), 20 min. Moreover, the “time by which locomotor activity returns to control saline levels” value in the data set with Balb/c mice (post-injection, PBZI 10 mg/kg sc, PD128907 0.4 mg/kg sc) was not above 120 min. Besides, the “dose at which biphasic locomotor effect was observed” value in the data set with Balb/c mice (sc) was not below 0.05 mg/kg. For the same compound, the locomotor response result in the data set with Balb/c mice (sc, PBZI 10 mg/kg, PD128907 0.05-0.4 mg/kg, normalized to saline, hydrochloride) was “induces both hypoactivity and hyperactivity; also recorded: biphasic locomotor response; also recorded: biphasic effect; also recorded: an initial hypoactivity (horizontal arrows) that is followed by hyperactivity”. Also, the Ki was 0.4 nM at D3 dopamine receptor [3] (D3, Scheideler et al., 1997, read-out: Ki); 2.3 nM at D3 dopamine receptor [3] (source not stated, read-out: D3 dopamine receptor binding affinity Ki); 202 nM at D2S; 114 nM at D4.2. In data set [4], the “dyskinesia induced by the compound itself, before levodopa administration” value is “in of itself induced dyskinesia; also recorded: increased AIMs score even before the levodopa was administered”.

For `Fc1ccc(-c2cncc(CNC[C@H]3CCc4ccccc4O3)c2)cc1` [sarizotan, 1-[(2R)-3,4-dihydro-2H-chromen-2-yl]-N-([5-(4-fluorophenyl)pyridin-3-yl]methyl)methanamine], the “GIRK channel signaling pathway: agonist type” value on D4.2 dopamine receptor [5] and at D2L dopamine receptor [7] was “partial agonist” each time. In addition, the “tolerance and SRT properties at D2S” value on D2S dopamine receptor is “induces tolerance and slow response termination (SRT) properties”. In addition, the “adenylyl cyclase pathway: agonist type” value on D4.2 dopamine receptor [6] and at D2L dopamine receptor [8] was “full agonist” in each case.

For the compound `N[C@@H](Cc1ccc(O)c(O)c1)C(=O)O` [levodopa, L-3,4-dihydroxyphenylalanine], the “forelimb bradykinesia (forelimb stepping test)” value in [9] is on record as “dose dependent improvement in forelimb bradykinesia”.

The values are drawn from US9289400B2, “D3 dopamine receptor agonists to treat dyskinesia in parkinson's disease” (priority 2010, dated 2016).
